Results: ChEMBL document CHEMBL5233215, “Recent developments of chalcones as potential antibacterial agents in medicinal chemistry” (Eur J Med Chem, 2020)
In brackets after ≈: the same amount, converted by molar mass.

Legend:
Bacillus subtilis [1] = test: Antibacterial activity Bacillus subtilis NBRC 3757 assessed as inhibition of bacterial growth after 48 hrs by two fold dilution method; type: functional
[2] = test system: Staphylococcus epidermidis; test: Antibacterial activity Staphylococcus epidermidis NBRC 12993 assessed as inhibition of bacterial growth after 48 hrs by two fold dilution method; type: functional
Micrococcus luteus = test: Antibacterial activity Micrococcus luteus NBRC 333 assessed as inhibition of bacterial growth after 48 hrs by two fold dilution method; type: functional
Staphylococcus aureus [3] = test: Antibacterial activity methicillin-sensitive Staphylococcus aureus ATCC 25923 assessed as inhibition of bacterial growth after 24 hrs by NCCLS protocol based microdilution method; type: functional
Staphylococcus aureus [4] = test: Antibacterial activity methicillin-resistant Staphylococcus aureus ATCC 44330 assessed as inhibition of bacterial growth after 24 hrs by NCCLS protocol based microdilution method; type: functional
Staphylococcus aureus [5] = test: Antibacterial activity methicillin-sensitive Staphylococcus aureus ATCC 29213 assessed as inhibition of bacterial growth by CLSI based microbroth dilution assay; type: functional
Staphylococcus aureus [6] = test: Antibacterial activity methicillin-resistant Staphylococcus aureus USA300 assessed as inhibition of bacterial growth by CLSI based microbroth dilution assay; type: functional
Bacillus anthracis = test: Antibacterial activity Bacillus anthracis Sterne 34F2 assessed as inhibition of bacterial growth by CLSI based microbroth dilution assay; type: functional
Staphylococcus aureus [7] = test: Antibacterial activity Staphylococcus aureus ATCC 25923 assessed as inhibition of bacterial growth incubated for 16 hrs by CLSI protocol based microdilution method; type: functional
Staphylococcus aureus [8] = test: Antibacterial activity methicillin-resistant Staphylococcus aureus ATCC 700699 assessed as inhibition of bacterial growth incubated for 16 hrs by CLSI protocol based microdilution method; type: functional
Staphylococcus aureus [9] = test: Antibacterial activity Staphylococcus aureus ATCC 29213 assessed as inhibition of bacterial growth incubated for 16 hrs by CLSI protocol based microdilution method; type: functional
Staphylococcus aureus [10] = test: Antibacterial activity Staphylococcus aureus ATCC 33592 assessed as inhibition of bacterial growth incubated for 16 hrs by CLSI protocol based microdilution method; type: functional
Staphylococcus aureus [11] = test: Antimicrobial activity against Staphylococcus aureus assessed as bacterial growth inhibition incubated for 18 hrs by broth micro dilution method; type: functional
Escherichia coli [12] = test: Antimicrobial activity against Escherichia coli assessed as bacterial growth inhibition incubated for 18 hrs by broth micro dilution method; type: functional
Salmonella typhimurium = test: Antimicrobial activity against Salmonella typhimurium assessed as bacterial growth inhibition incubated for 18 hrs by broth micro dilution method; type: functional, Salmonella enterica subsp. enterica serovar Typhimurium; details: Salmonella enterica
Streptococcus pyogenes [13] = test: Antimicrobial activity against Streptococcus pyogenes assessed as bacterial growth inhibition incubated for 18 hrs by broth micro dilution method
Staphylococcus aureus [14] = test: Antibacterial activity methicillin-resistant Staphylococcus aureus MRSA ST-1745 assessed as inhibition of bacterial growth incubated for 16 to 24 hrs by broth microdilution assay; type: functional; details: time 16-24 hrs
Staphylococcus aureus [15] = test: Antibacterial activity methicillin-resistant Staphylococcus aureus MRSA ST-2071 assessed as inhibition of bacterial growth incubated for 16 to 24 hrs by broth microdilution assay; type: functional; details: time 16-24 hrs
Staphylococcus aureus [16] = test: Antibacterial activity methicillin-resistant Staphylococcus aureus MRSA ST-2438 assessed as inhibition of bacterial growth incubated for 16 to 24 hrs by broth microdilution assay; type: functional; details: time 16-24 hrs
Staphylococcus aureus [17] = test: Antibacterial activity methicillin-resistant Staphylococcus aureus MRSA B-10732 assessed as inhibition of bacterial growth incubated for 16 to 24 hrs by broth microdilution assay; type: functional; details: time 16-24 hrs
Staphylococcus aureus [18] = test: Antibacterial activity methicillin-resistant Staphylococcus aureus MRSA P-8029 assessed as inhibition of bacterial growth incubated for 16 to 24 hrs by broth microdilution assay; type: functional; details: time 16-24 hrs
Staphylococcus aureus [19] = test: Antibacterial activity methicillin-resistant Staphylococcus aureus MRSA ST-5457 assessed as inhibition of bacterial growth incubated for 16 to 24 hrs by broth microdilution assay; type: functional; details: time 16-24 hrs
Staphylococcus aureus [20] = test: Antibacterial activity methicillin-resistant Staphylococcus aureus MRSA ST-10342 assessed as inhibition of bacterial growth incubated for 16 to 24 hrs by broth microdilution assay; type: functional; details: time 16-24 hrs
Staphylococcus aureus [21] = test: Antibacterial activity methicillin-resistant Staphylococcus aureus MRSA B-10760 assessed as inhibition of bacterial growth incubated for 16 to 24 hrs by broth microdilution assay; type: functional; details: time 16-24 hrs
Staphylococcus aureus [22] = test: Antibacterial activity methicillin-resistant Staphylococcus aureus MRSA ST-3151 assessed as inhibition of bacterial growth incubated for 16 to 24 hrs by broth microdilution assay; type: functional; details: time 16-24 hrs
Staphylococcus aureus [23] = test: Antibacterial activity methicillin-resistant Staphylococcus aureus MRSA P-6642 assessed as inhibition of bacterial growth incubated for 16 to 24 hrs by broth microdilution assay; type: functional; details: time 16-24 hrs
Staphylococcus aureus [24] = test: Antibacterial activity Staphylococcus aureus assessed as inhibition of bacterial growth by […] dye based colorimetric method; type: functional
Streptococcus pyogenes [25] = test: Antibacterial activity Streptococcus pyogenes assessed as inhibition of bacterial growth by […] dye based colorimetric method; type: functional
Escherichia coli [26] = test: Antibacterial activity Escherichia coli assessed as inhibition of bacterial growth by […] dye based colorimetric method; type: functional
DNA gyrase = DNA gyrase (Staphylococcus aureus, UniProt P0A0K8+P20831); test: Inhibition of Staphylococcus aureus DNA gyrase; type: protein-complex assay
Escherichia coli [27] = test: Antimicrobial activity against Escherichia coli MTCC 1573 assessed as bacterial growth inhibition incubated for 24 hrs by broth micro dilution method; type: functional
Staphylococcus aureus [28] = test: Antimicrobial activity against Staphylococcus aureus MTCC 1430 assessed as bacterial growth inhibition incubated for 24 hrs by broth micro dilution method; type: functional
Pseudomonas aeruginosa [29] = test: Antimicrobial activity against Pseudomonas aeruginosa MTCC 424 assessed as bacterial growth inhibition incubated for 24 hrs by broth micro dilution method; type: functional
Bacillus subtilis [30] = test: Antimicrobial activity against Bacillus subtilis MTCC 441 assessed as bacterial growth inhibition incubated for 24 hrs by broth micro dilution method; type: functional
Pseudomonas aeruginosa [31] = test: Antibacterial activity Pseudomonas aeruginosa Ps12 assessed as inhibition of bacterial growth incubated for 24 hrs by microbroth dilution assay; type: functional
Klebsiella pneumoniae = test: Antibacterial activity Klebsiella pneumoniae K4 assessed as inhibition of bacterial growth incubated for 24 hrs by microbroth dilution assay; type: functional
DNA = test: Binding affinity to DNA (unknown origin) assessed as DNA intercalation by measuring amount of methyl green dye replaced from DNA-methyl green complex after 24 hrs by colourimetric assay; type: nucleic-acid assay
[32] = test system: Mycobacterium tuberculosis; test: Antimycobacterial activity against Mycobacterium tuberculosis H37Rv CNCTC My 331/88 assessed as bacterial growth inhibition incubated for 5 days by resazurin dye based assay; type: functional; details: H37Rv CNCTC My 331/88, 120 h, time 5 day
Mycobacterium kansasii = test: Antimycobacterial activity against Mycobacterium kansasii CNCTC My 235/80 assessed as bacterial growth inhibition incubated for 5 days by resazurin dye based assay; type: functional; details: CNCTC My 235/80, 120 h, time 5 day
[33] = test system: Mycolicibacterium smegmatis; test: Antimycobacterial activity against Mycobacterium smegmatis ATCC 607 assessed as bacterial growth inhibition incubated for 48 hrs by resazurin dye based assay; type: functional

Chain of DNA gyrase (P0A0K8 whole entry): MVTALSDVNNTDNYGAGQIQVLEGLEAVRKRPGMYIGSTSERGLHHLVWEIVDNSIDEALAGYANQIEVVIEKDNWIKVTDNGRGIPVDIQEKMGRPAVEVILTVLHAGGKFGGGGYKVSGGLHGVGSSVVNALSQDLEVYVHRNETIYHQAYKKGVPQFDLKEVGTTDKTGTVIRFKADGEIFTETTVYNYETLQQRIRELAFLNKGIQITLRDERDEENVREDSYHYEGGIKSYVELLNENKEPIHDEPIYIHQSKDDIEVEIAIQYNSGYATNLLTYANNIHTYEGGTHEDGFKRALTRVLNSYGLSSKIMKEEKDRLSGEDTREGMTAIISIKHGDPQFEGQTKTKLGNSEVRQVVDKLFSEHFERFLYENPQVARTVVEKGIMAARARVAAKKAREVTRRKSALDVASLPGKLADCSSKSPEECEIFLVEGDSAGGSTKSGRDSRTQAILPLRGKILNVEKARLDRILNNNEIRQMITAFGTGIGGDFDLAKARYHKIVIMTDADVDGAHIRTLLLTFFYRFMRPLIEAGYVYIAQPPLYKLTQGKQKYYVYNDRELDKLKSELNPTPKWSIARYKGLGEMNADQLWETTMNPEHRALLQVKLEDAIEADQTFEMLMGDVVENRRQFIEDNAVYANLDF
Chain of DNA gyrase (P20831 whole entry): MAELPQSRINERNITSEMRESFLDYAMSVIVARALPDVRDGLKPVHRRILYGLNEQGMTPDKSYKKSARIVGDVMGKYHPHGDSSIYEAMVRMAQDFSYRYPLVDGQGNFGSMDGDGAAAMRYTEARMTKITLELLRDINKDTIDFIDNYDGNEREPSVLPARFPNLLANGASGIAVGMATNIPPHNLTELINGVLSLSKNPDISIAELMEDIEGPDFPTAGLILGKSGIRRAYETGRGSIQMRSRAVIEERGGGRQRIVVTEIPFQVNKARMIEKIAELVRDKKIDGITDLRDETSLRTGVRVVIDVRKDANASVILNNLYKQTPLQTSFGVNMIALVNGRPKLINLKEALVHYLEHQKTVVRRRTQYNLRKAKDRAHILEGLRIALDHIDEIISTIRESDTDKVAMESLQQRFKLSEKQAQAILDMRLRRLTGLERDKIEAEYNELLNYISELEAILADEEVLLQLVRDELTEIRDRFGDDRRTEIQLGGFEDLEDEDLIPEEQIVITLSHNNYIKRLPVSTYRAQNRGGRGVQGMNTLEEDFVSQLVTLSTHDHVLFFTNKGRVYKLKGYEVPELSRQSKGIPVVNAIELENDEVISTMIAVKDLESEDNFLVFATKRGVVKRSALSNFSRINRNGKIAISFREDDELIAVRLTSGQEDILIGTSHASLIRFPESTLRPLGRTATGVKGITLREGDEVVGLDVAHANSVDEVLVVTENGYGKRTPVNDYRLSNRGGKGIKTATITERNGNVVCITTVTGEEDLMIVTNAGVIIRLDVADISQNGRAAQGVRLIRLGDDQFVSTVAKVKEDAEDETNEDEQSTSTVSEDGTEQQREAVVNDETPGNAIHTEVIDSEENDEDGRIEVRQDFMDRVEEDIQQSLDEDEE

Compound: COc1cc(O)c(C(=O)/C=C/c2ccc(O)cc2)cc1CC=C(C)C
- MIC (Bacillus subtilis [1]): 4 mg/L (≈ 11.8 µM)
- MIC [2]: 4 mg/L (≈ 11.8 µM)
- MIC (Micrococcus luteus): 4 mg/L (≈ 11.8 µM)

Compound: O=C(/C=C/c1ccccc1O)c1cccs1
- MIC (Staphylococcus aureus [3]): 32 mg/L (≈ 139 µM)
- MIC (Staphylococcus aureus [4]): 64 mg/L (≈ 278 µM)

Compound: O=C(/C=C/c1ccc(N2CCCCC2)cc1)c1ccc(O)cc1O
- MIC (Staphylococcus aureus [5]): 3.12 mg/L (≈ 9.66 µM)
- MIC (Staphylococcus aureus [6]): 3.12 mg/L (≈ 9.66 µM)

Compound: COc1ccc(C(=O)/C=C/c2ccc(F)cc2)cc1
- MIC (Bacillus anthracis): 12.5 mg/L (≈ 48.8 µM)

Compound: COc1ccc(-c2csc(/N=C/c3cc(/C=C/C(=O)c4ccc(C)cc4)cc(C(C)(C)C)c3O)n2)cc1OC
- MIC (Staphylococcus aureus [7]): 5.8 mg/L (≈ 10.7 µM)
- MIC (Staphylococcus aureus [8]): 11.6 mg/L (≈ 21.5 µM)
- MIC (Staphylococcus aureus [9]): 5.8 mg/L (≈ 10.7 µM)
- MIC (Staphylococcus aureus [10]): 1.4 mg/L (≈ 2.59 µM)

Compound: COc1ccc(C(=O)/C=C/c2ccc(O)cc2)c(O)c1CC=C(C)C
- MIC (Bacillus subtilis [1]): 2 mg/L (≈ 5.91 µM)
- MIC [2]: 2 mg/L (≈ 5.91 µM)
- MIC (Micrococcus luteus): 2 mg/L (≈ 5.91 µM)

Compound: Cc1cc(C(=O)/C=C/c2c(C)cn(-c3ccccc3)c2C)c(C)s1
- MIC (Staphylococcus aureus [11]): 32 mg/L (≈ 95.4 µM)
- MIC (Escherichia coli [12]): 16 mg/L (≈ 47.7 µM)
- MIC (Salmonella typhimurium): 16 mg/L (≈ 47.7 µM)
- MIC (Streptococcus pyogenes [13]): 32 mg/L (≈ 95.4 µM)

Compound: Cc1cc(C(=O)/C=C/c2ccc(Cl)cc2)ccc1O
- MIC (Bacillus anthracis): 12.5 mg/L (≈ 45.8 µM)

Compound: COc1ccc(/C=C/C(=O)c2ccc(O)c(C)c2)cc1Br
- MIC (Bacillus anthracis): 1.56 mg/L (≈ 4.49 µM)

Compound: O=C(/C=C/c1c[nH]c2ccccc12)c1cccc(OCc2ccccc2)c1
- MIC (Staphylococcus aureus [14]): 12.5 mg/L (≈ 35.4 µM)
- MIC (Staphylococcus aureus [15]): 12.5 mg/L (≈ 35.4 µM)
- MIC (Staphylococcus aureus [16]): 12.5 mg/L (≈ 35.4 µM)
- MIC (Staphylococcus aureus [17]): 12.5 mg/L (≈ 35.4 µM)
- MIC (Staphylococcus aureus [18]): 12.5 mg/L (≈ 35.4 µM)
- MIC (Staphylococcus aureus [19]): 12.5 mg/L (≈ 35.4 µM)
- MIC (Staphylococcus aureus [20]): 12.5 mg/L (≈ 35.4 µM)
- MIC (Staphylococcus aureus [21]): 12.5 mg/L (≈ 35.4 µM)
- MIC (Staphylococcus aureus [22]): 12.5 mg/L (≈ 35.4 µM)
- MIC (Staphylococcus aureus [23]): 12.5 mg/L (≈ 35.4 µM)

Compound: Cc1c(Cl)ccc2cc(/C=C/C(=O)c3ccc(Br)cc3)c(Cl)nc12
- MIC (Staphylococcus aureus [24]): 125 mg/L (≈ 297 µM)
- MIC (Streptococcus pyogenes [25]): 125 mg/L (≈ 297 µM)
- MIC (Escherichia coli [26]): 125 mg/L (≈ 297 µM)
- IC50 (DNA gyrase): 0.332 µM

Compound: CSc1ccc(/C=C/C(=O)c2nnn(-c3c(C)c(C(F)(F)F)cc(Cl)c3Cl)c2C)cc1
- MIC (Escherichia coli [27]): 3.12 mg/L (≈ 6.42 µM)
- MIC (Staphylococcus aureus [28]): 6.25 mg/L (≈ 12.9 µM)
- MIC (Pseudomonas aeruginosa [29]): 12.5 mg/L (≈ 25.7 µM)
- MIC (Bacillus subtilis [30]): 3.12 mg/L (≈ 6.42 µM)

Compound: COc1cc(C(CC(=O)c2ccc(C)cc2)SC(=S)N2CCOCC2)cc(OC)c1OC (stereo not drawn)
- MIC (Pseudomonas aeruginosa [31]): 8 mg/L (≈ 16.8 µM)
- MIC (Klebsiella pneumoniae): 8 mg/L (≈ 16.8 µM)

Compound: COc1ccc(C(=O)CC(SC(=S)N2CCOCC2)c2ccc(OC)c(OC)c2)cc1 (stereo not drawn)
- MIC (Pseudomonas aeruginosa [31]): 32 mg/L (≈ 69.3 µM)
- MIC (Klebsiella pneumoniae): 32 mg/L (≈ 69.3 µM)
- IC50 (DNA): 27.48 mg/L (≈ 59.5 µM)

Compound: CC(C)(C)c1cnc(C(=O)/C=C/c2ccccc2Cl)cn1
- MIC [32]: 3.13 mg/L (≈ 10.4 µM)
- MIC (Mycobacterium kansasii): 25 mg/L (≈ 83.1 µM)
- MIC [33]: 3.9 mg/L (≈ 13 µM)

Compound: COc1cc(C(CC(=O)c2ccc(C)cc2)SC(=S)N2CCN(Cc3ccccc3)CC2)cc(OC)c1OC (stereo not drawn)
- MIC (Pseudomonas aeruginosa [31]): 32 mg/L (≈ 56.7 µM)
- MIC (Klebsiella pneumoniae): 64 mg/L (≈ 113 µM)
- IC50 (DNA): 30.97 mg/L (≈ 54.8 µM)

Compound: CC(C)(C)c1cnc(C(=O)/C=C/c2ccccc2F)cn1
- MIC [32]: 6.25 mg/L (≈ 22 µM)
- MIC (Mycobacterium kansasii): 12.5 mg/L (≈ 44 µM)
- MIC [33]: > 500 mg/L
